Key:
Type in all cases: cell-based
Conditions in all cases: for Activity of the biocides determined 1 week after germ addition, week 1: week 1, polymer emulsion pH 6.5; for Activity of the biocides determined 1 week after germ addition, week 2: week 2, polymer emulsion pH 6.5; for Activity of the biocides determined 1 week after germ addition, week 3: week 3, polymer emulsion pH 6.5; for Activity of the biocides determined 1 week after germ addition, week 4: week 4, polymer emulsion pH 6.5; for Activity of the biocides determined 1 week after germ addition, week 5: week 5, polymer emulsion pH 6.5; for Activity of the biocides determined 1 week after germ addition, week 6: week 6, polymer emulsion pH 6.5
[1] = system: Bacteria: Escherichia coli, Pseudomonas aeruginosa and Staphylococcus aureus; assay: Microbiological stress test, preservation of a polymer emulsion: bacteria
Description: (§1) The preserving effect of an inventive composition comprising DBDCB and ZPT in a polymer emulsion (acrylate-based, pH=6.5) was investigated using a microbiological stress test. The microbiological stress test examines the susceptibility of water-based systems to microbial attack and the effect of preservatives. To this end, the preservatives are incorporated in defined concentrations into the water-based systems. […] Having knowledge of the microorganism populations prevalent in polymer emulsions and dispersions the experiment employed a mixture of the following microorganism types for testing: Bacteria: Escherichia coli, Pseudomonas aeruginosa and Staphylococcus aureus.

[2] = system: Yeasts: Candida albicans and Rhodotorula rubra; assay: Microbiological stress test, preservation of a polymer emulsion: yeasts
Description: as §1, with “Yeasts: Candida albicans” for “Bacteria: Escherichia coli, Pseudomonas aeruginosa”, “Rhodotorula rubra.” for “Staphylococcus aureus.”

[3] = system: Molds: Acremonium strictum, Aspergillus niger and Geotrichum candidu; assay: Microbiological stress test, preservation of a polymer emulsion: molds
Description: as §1, with “Molds: Acremonium strictum, Aspergillus niger” for “Bacteria: Escherichia coli, Pseudomonas aeruginosa”, “Geotrichum candidu.” for “Staphylococcus aureus.”

Structure (SMILES): N#CCCC(Br)(C#N)CBr (stereo not drawn) [DBDCB, 1,2-Dibromo-2,4-dicyanobutane]
- Activity of the biocides determined 1 week after germ addition, week 1 ([1]; 0.025 wt % biocide added): 0 (no reduction or only a minor reduction of the microbe level is observed (residual level of at least 10^5 bacteria/10^4 mold/yeast cells per g) (score of 0=poor))
- Activity of the biocides determined 1 week after germ addition, week 2 ([1]; 0.025 wt % biocide added): 0 (no reduction or only a minor reduction of the microbe level is observed (residual level of at least 10^5 bacteria/10^4 mold/yeast cells per g) (score of 0=poor))
- Activity of the biocides determined 1 week after germ addition, week 3 ([1]; 0.025 wt % biocide added): 0 (no reduction or only a minor reduction of the microbe level is observed (residual level of at least 10^5 bacteria/10^4 mold/yeast cells per g) (score of 0=poor))
- Activity of the biocides determined 1 week after germ addition, week 4 ([1]; 0.025 wt % biocide added): 0 (no reduction or only a minor reduction of the microbe level is observed (residual level of at least 10^5 bacteria/10^4 mold/yeast cells per g) (score of 0=poor))
- Activity of the biocides determined 1 week after germ addition, week 5 ([1]; 0.025 wt % biocide added): 0 (no reduction or only a minor reduction of the microbe level is observed (residual level of at least 10^5 bacteria/10^4 mold/yeast cells per g) (score of 0=poor))
- Activity of the biocides determined 1 week after germ addition, week 6 ([1]; 0.025 wt % biocide added): 0 (no reduction or only a minor reduction of the microbe level is observed (residual level of at least 10^5 bacteria/10^4 mold/yeast cells per g) (score of 0=poor))
- Activity of the biocides determined 1 week after germ addition, week 1 ([1]; 0.05 wt % biocide added): 0 (no reduction or only a minor reduction of the microbe level is observed (residual level of at least 10^5 bacteria/10^4 mold/yeast cells per g) (score of 0=poor))
- Activity of the biocides determined 1 week after germ addition, week 2 ([1]; 0.05 wt % biocide added): 0 (no reduction or only a minor reduction of the microbe level is observed (residual level of at least 10^5 bacteria/10^4 mold/yeast cells per g) (score of 0=poor))
- Activity of the biocides determined 1 week after germ addition, week 3 ([1]; 0.05 wt % biocide added): 0 (no reduction or only a minor reduction of the microbe level is observed (residual level of at least 10^5 bacteria/10^4 mold/yeast cells per g) (score of 0=poor))
- Activity of the biocides determined 1 week after germ addition, week 4 ([1]; 0.05 wt % biocide added): 0 (no reduction or only a minor reduction of the microbe level is observed (residual level of at least 10^5 bacteria/10^4 mold/yeast cells per g) (score of 0=poor))
- Activity of the biocides determined 1 week after germ addition, week 5 ([1]; 0.05 wt % biocide added): 0 (no reduction or only a minor reduction of the microbe level is observed (residual level of at least 10^5 bacteria/10^4 mold/yeast cells per g) (score of 0=poor))
- Activity of the biocides determined 1 week after germ addition, week 6 ([1]; 0.05 wt % biocide added): 0 (no reduction or only a minor reduction of the microbe level is observed (residual level of at least 10^5 bacteria/10^4 mold/yeast cells per g) (score of 0=poor))
- Activity of the biocides determined 1 week after germ addition, week 1 ([2]; 0.025 wt % biocide added): 0 (no reduction or only a minor reduction of the microbe level is observed (residual level of at least 10^5 bacteria/10^4 mold/yeast cells per g) (score of 0=poor))
- Activity of the biocides determined 1 week after germ addition, week 2 ([2]; 0.025 wt % biocide added): 0 (no reduction or only a minor reduction of the microbe level is observed (residual level of at least 10^5 bacteria/10^4 mold/yeast cells per g) (score of 0=poor))
- Activity of the biocides determined 1 week after germ addition, week 3 ([2]; 0.025 wt % biocide added): 0 (no reduction or only a minor reduction of the microbe level is observed (residual level of at least 10^5 bacteria/10^4 mold/yeast cells per g) (score of 0=poor))
- Activity of the biocides determined 1 week after germ addition, week 4 ([2]; 0.025 wt % biocide added): 0 (no reduction or only a minor reduction of the microbe level is observed (residual level of at least 10^5 bacteria/10^4 mold/yeast cells per g) (score of 0=poor))
- Activity of the biocides determined 1 week after germ addition, week 5 ([2]; 0.025 wt % biocide added): 0 (no reduction or only a minor reduction of the microbe level is observed (residual level of at least 10^5 bacteria/10^4 mold/yeast cells per g) (score of 0=poor))
- Activity of the biocides determined 1 week after germ addition, week 6 ([2]; 0.025 wt % biocide added): 0 (no reduction or only a minor reduction of the microbe level is observed (residual level of at least 10^5 bacteria/10^4 mold/yeast cells per g) (score of 0=poor))
- Activity of the biocides determined 1 week after germ addition, week 1 ([2]; 0.05 wt % biocide added): 0 (no reduction or only a minor reduction of the microbe level is observed (residual level of at least 10^5 bacteria/10^4 mold/yeast cells per g) (score of 0=poor))
- Activity of the biocides determined 1 week after germ addition, week 2 ([2]; 0.05 wt % biocide added): 0 (no reduction or only a minor reduction of the microbe level is observed (residual level of at least 10^5 bacteria/10^4 mold/yeast cells per g) (score of 0=poor))
- Activity of the biocides determined 1 week after germ addition, week 3 ([2]; 0.05 wt % biocide added): 0 (no reduction or only a minor reduction of the microbe level is observed (residual level of at least 10^5 bacteria/10^4 mold/yeast cells per g) (score of 0=poor))
- Activity of the biocides determined 1 week after germ addition, week 4 ([2]; 0.05 wt % biocide added): 0 (no reduction or only a minor reduction of the microbe level is observed (residual level of at least 10^5 bacteria/10^4 mold/yeast cells per g) (score of 0=poor))
- Activity of the biocides determined 1 week after germ addition, week 5 ([2]; 0.05 wt % biocide added): 0 (no reduction or only a minor reduction of the microbe level is observed (residual level of at least 10^5 bacteria/10^4 mold/yeast cells per g) (score of 0=poor))
- Activity of the biocides determined 1 week after germ addition, week 6 ([2]; 0.05 wt % biocide added): 0 (no reduction or only a minor reduction of the microbe level is observed (residual level of at least 10^5 bacteria/10^4 mold/yeast cells per g) (score of 0=poor))
- Activity of the biocides determined 1 week after germ addition, week 1 ([3]; 0.025 wt % biocide added): 0 (no reduction or only a minor reduction of the microbe level is observed (residual level of at least 10^5 bacteria/10^4 mold/yeast cells per g) (score of 0=poor))
- Activity of the biocides determined 1 week after germ addition, week 2 ([3]; 0.025 wt % biocide added): 0 (no reduction or only a minor reduction of the microbe level is observed (residual level of at least 10^5 bacteria/10^4 mold/yeast cells per g) (score of 0=poor))
- Activity of the biocides determined 1 week after germ addition, week 3 ([3]; 0.025 wt % biocide added): 0 (no reduction or only a minor reduction of the microbe level is observed (residual level of at least 10^5 bacteria/10^4 mold/yeast cells per g) (score of 0=poor))
- Activity of the biocides determined 1 week after germ addition, week 4 ([3]; 0.025 wt % biocide added): 0 (no reduction or only a minor reduction of the microbe level is observed (residual level of at least 10^5 bacteria/10^4 mold/yeast cells per g) (score of 0=poor))
- Activity of the biocides determined 1 week after germ addition, week 5 ([3]; 0.025 wt % biocide added): 0 (no reduction or only a minor reduction of the microbe level is observed (residual level of at least 10^5 bacteria/10^4 mold/yeast cells per g) (score of 0=poor))
- Activity of the biocides determined 1 week after germ addition, week 6 ([3]; 0.025 wt % biocide added): 0 (no reduction or only a minor reduction of the microbe level is observed (residual level of at least 10^5 bacteria/10^4 mold/yeast cells per g) (score of 0=poor))
- Activity of the biocides determined 1 week after germ addition, week 1 ([3]; 0.05 wt % biocide added): 0 (no reduction or only a minor reduction of the microbe level is observed (residual level of at least 10^5 bacteria/10^4 mold/yeast cells per g) (score of 0=poor))
- Activity of the biocides determined 1 week after germ addition, week 2 ([3]; 0.05 wt % biocide added): 0 (no reduction or only a minor reduction of the microbe level is observed (residual level of at least 10^5 bacteria/10^4 mold/yeast cells per g) (score of 0=poor))
- Activity of the biocides determined 1 week after germ addition, week 3 ([3]; 0.05 wt % biocide added): 0 (no reduction or only a minor reduction of the microbe level is observed (residual level of at least 10^5 bacteria/10^4 mold/yeast cells per g) (score of 0=poor))
- Activity of the biocides determined 1 week after germ addition, week 4 ([3]; 0.05 wt % biocide added): 0 (no reduction or only a minor reduction of the microbe level is observed (residual level of at least 10^5 bacteria/10^4 mold/yeast cells per g) (score of 0=poor))
- Activity of the biocides determined 1 week after germ addition, week 5 ([3]; 0.05 wt % biocide added): 0 (no reduction or only a minor reduction of the microbe level is observed (residual level of at least 10^5 bacteria/10^4 mold/yeast cells per g) (score of 0=poor))
- Activity of the biocides determined 1 week after germ addition, week 6 ([3]; 0.05 wt % biocide added): 0 (no reduction or only a minor reduction of the microbe level is observed (residual level of at least 10^5 bacteria/10^4 mold/yeast cells per g) (score of 0=poor))

— patent publication US20190269129A1, “COMPOSITION CONTAINING 1,2-DIBROMO-2,4-DICYANOBUTANE (DBDCB) AND ZINC PYRITHIONE (ZPT)” (LANXESS Deutschland GmbH, priority 2014, published 2019)
